# Assay results as given in ChEMBL document CHEMBL5653627 (J Neurochem, 2017).
# The source made the active and inactive calls. The calls are words filed in the database; no cut-off is given here.
# Key:
# SMA-497 [1] = experiment: Anti-clonogenicic activity in mouse SMA-497 cells assessed as reduction in colony formation at 0.1 to 1 uM preincubated for 6 hrs followed by 1 to 9 Gy irradiation with and measured after 10 days by MTT based clonogenic survival assay; type: functional, cell-based; conditions: dose 0.1-1 µM, time 246.0 hrs
# SMA-560 [2] = experiment: Anti-clonogenicic activity in mouse SMA-560 cells assessed as reduction in colony formation at 0.1 to 1 uM preincubated for 6 hrs followed by temozolomide addition and measured after 10 days by MTT based clonogenic survival assay; type: functional, cell-based; conditions: dose 0.1-1 µM, time 246.0 hrs
# [3] = Toxicity in VM/Dk mouse xenografted with mouse SMA-497 cells assessed as survival rate at 100 mg/kg,po daily with 12 Gy irradition after 2days of treatment initiation (Rvb=17%); type: organism-based; conditions: in vivo, 48 h
# SMA-540 [4] = experiment: Antitumor activity against mouse SMA-540 cells xenografted in VM/Dk mouse assessed as decrease in tumor volume at 100 mg/kg,po daily by H and E staining based microscopy; type: functional, organism-based
# [5] = biological target: T1, Discoidin domain-containing receptor 2 (Homo sapiens, UniProt Q16832); experiment: Binding affinity to DDR2 (unknown origin) assessed as dissociation constant by KINOME scan assay
# T1 sequence (Q16832 whole entry): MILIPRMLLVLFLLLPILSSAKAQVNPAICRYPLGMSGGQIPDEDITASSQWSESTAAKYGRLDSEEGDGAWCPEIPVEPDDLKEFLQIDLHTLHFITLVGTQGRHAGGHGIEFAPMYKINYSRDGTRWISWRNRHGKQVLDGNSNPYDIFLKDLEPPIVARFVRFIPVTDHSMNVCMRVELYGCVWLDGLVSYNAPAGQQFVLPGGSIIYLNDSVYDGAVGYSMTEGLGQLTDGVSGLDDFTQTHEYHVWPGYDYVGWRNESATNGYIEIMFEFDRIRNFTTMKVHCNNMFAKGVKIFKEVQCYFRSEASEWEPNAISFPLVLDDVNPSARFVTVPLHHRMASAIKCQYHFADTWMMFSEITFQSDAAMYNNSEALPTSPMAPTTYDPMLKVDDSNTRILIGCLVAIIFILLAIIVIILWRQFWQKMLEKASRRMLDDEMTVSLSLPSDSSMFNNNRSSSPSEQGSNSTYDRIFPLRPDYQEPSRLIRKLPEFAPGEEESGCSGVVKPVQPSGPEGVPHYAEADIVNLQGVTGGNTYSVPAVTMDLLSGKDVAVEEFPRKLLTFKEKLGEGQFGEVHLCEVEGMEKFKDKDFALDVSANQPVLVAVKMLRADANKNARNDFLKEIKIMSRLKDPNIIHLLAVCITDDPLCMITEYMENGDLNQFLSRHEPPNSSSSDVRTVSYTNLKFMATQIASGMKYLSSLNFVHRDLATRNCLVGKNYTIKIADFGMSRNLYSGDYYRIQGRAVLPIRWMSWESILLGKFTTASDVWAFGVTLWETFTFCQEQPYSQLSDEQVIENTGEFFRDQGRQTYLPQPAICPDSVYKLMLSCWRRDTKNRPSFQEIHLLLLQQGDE
# SMA-560 [6] = experiment: Anti-clonogenicic activity in mouse SMA-560 cells assessed as reduction in colony formation at 0.1 to 1 uM preincubated for 6 hrs followed by 1 to 9 Gy irradiation with and measured after 10 days by MTT based clonogenic survival assay; type: functional, cell-based; conditions: dose 0.1-1 µM, time 246.0 hrs
# SMA-560 [7] = experiment: Induction of apoptosis in mouse SMA-560 cells assessed as late apoptotic cells at 0.1 uM incubated for 72 hrs by Annexin V-FITC/PI staining based flow cytometric analysis (reference value: 1.83%); type: functional
# SMA-497 [8] = experiment: In vivo inhibition of TIE-2 in VM/Dk mouse xenografted with mouse SMA-497 cells assessed as decrease in TIE-2 expression in brain blood vessels at 100 mg/kg,po daily by immunohistochemistry analysis; type: functional, organism-based
# SMA-560 [9] = experiment: Antitumor activity against mouse SMA-560 cells xenografted in VM/Dk mouse assessed as decrease in tumor volume at 100 mg/kg,po daily by H and E staining based microscopy; type: functional, organism-based
# SMA-497 [10] = experiment: Antitumor activity against mouse SMA-497 cells xenografted in VM/Dk mouse assessed as decrease in number of CD31-positive intra-tumoral vessels in tumor at 100 mg/kg,po daily by immunohistochemistry analysis; type: functional, organism-based
# SMA-497 [11] = experiment: In vivo inhibition of TIE-2 in VM/Dk mouse xenografted with mouse SMA-497 cells assessed as decrease in TIE-2 expression in brain blood vessels at 100 mg/kg,po daily with 12 Gy irradition after 2days of treatment initiation by immunohistochemistry analysis; type: functional, organism-based
# SMA-497 [12] = experiment: Antitumor activity against mouse SMA-497 cells xenografted in VM/Dk mouse assessed as decrease in tumor volume at 100 mg/kg,po daily by H and E staining based microscopy; type: functional, organism-based
# [13] = Toxicity in VM/Dk mouse xenografted with mouse SMA-540 cells assessed as survival rate at 100 mg/kg,po daily (Rvb=>60%); type: organism-based; conditions: in vivo
# GL261 [14] = experiment: Cytotoxicity against mouse GL261 cells assessed as reduction in metabolic activity at 0.001 to 100 uM incubated for 72 hrs by MTT assay; type: functional, cell-based; conditions: dose 0.001-100 µM
# SMA-497 [15] = experiment: Anti-clonogenicic activity in mouse SMA-497 cells assessed as reduction in colony formation at 0.1 to 1 uM preincubated for 6 hrs followed by temozolomide addition and measured after 10 days by MTT based clonogenic survival assay; type: functional, cell-based; conditions: dose 0.1-1 µM, time 246.0 hrs
# GL261 [16] = experiment: Antitumor activity against mouse GL261 cells xenografted in C57Bl/6 mouse assessed as decrease in number of CD31-positive intra-tumoral vessels in tumor at 100 mg/kg,po daily by immunohistochemistry analysis; type: functional, organism-based
# SMA-497 [17] = experiment: Induction of apoptosis in mouse SMA-497 cells assessed as necrotic cells at 0.1 uM incubated for 72 hrs by Annexin V-FITC/PI staining based flow cytometric analysis (reference value: 14.7%); type: functional
# SMA-560 [18] = experiment: Induction of cell cycle arrest in mouse SMA-560 cells assessed as accumulation at G2/M phase at 0.1 uM incubated for 72 hrs by propidium iodide/RNase staining based flow cytomtery (Rvb= 25%); type: functional
# GL261 [19] = experiment: Antitumor activity against mouse GL261 cells xenografted in C57Bl/6 mouse assessed as increase in number of tumor-infiltrating CD11b positive monocytes/microglia in tumor at 100 mg/kg,po daily by immunohistochemistry analysis; type: functional, organism-based
# SMA-540 [20] = experiment: Antitumor activity against mouse SMA-540 cells xenografted in VM/Dk mouse assessed as increase in number of tumor-infiltrating CD11b positive monocytes/microglia in tumor at 100 mg/kg,po daily by immunohistochemistry analysis; type: functional, organism-based
# [21] = Toxicity in C57Bl/6 mouse xenografted with mouse GL261 cells assessed as survival rate at 100 mg/kg,po daily (Rvb=13%); type: organism-based; conditions: in vivo
# Mus musculus = experiment: In vivo inhibition of Angiopoietin-1 stimulated TIE2 autophosphorylation in lungs of CB17/scid mouse at 25 to 100 mg/kg,po for 3 hrs with angiopoietin-1 stimulation during last 15 mins treatment by immunoblot analysis; type: functional, organism-based; conditions: Lung, dose 25-100 mg/kg
# SMA-497 [22] = experiment: Antitumor activity against mouse SMA-497 cells xenografted in VM/Dk mouse assessed as decrease in number of CD31-positive intra-tumoral vessels in tumor at 100 mg/kg,po daily with 12 Gy irradition after 2days of treatment initiation by immunohistochemistry analysis; type: functional, organism-based
smiles,measurement,setting,value
Cc1cc(C)c(-n2ccn3nc(-c4cccnc4)cc23)cc1NC(=O)c1cc(C#N)cc(S(F)(F)(F)(F)F)c1 [BAY-826],Activity,SMA-497 [1],inactive
same,Activity,SMA-560 [2],inactive
same,Survival,[3],17%
same,Activity,SMA-540 [4],inactive
same,Kd,[5],1.3 nM
same,Activity,SMA-560 [6],inactive
same,Activity,SMA-560 [7],0.66%
same,inhibition,SMA-497 [8],Active
same,Activity,SMA-560 [9],inactive
same,Activity,SMA-497 [10],inactive
same,inhibition,SMA-497 [11],Active
same,Activity,SMA-497 [12],inactive
same,Survival,[13],> 60%
same,Activity,GL261 [14],inactive
same,Activity,SMA-497 [15],inactive
same,Activity,GL261 [16],Active
same,Activity,SMA-497 [17],18.3%
same,Activity,SMA-560 [18],28%
same,Activity,GL261 [19],inactive
same,Activity,SMA-540 [20],Active
same,Survival,[21],15%
same,inhibition,Mus musculus,Active
same,Activity,SMA-497 [22],Active
